The data set can be described thus: in vitro. To be noted: human, hela cells, % viability.

In the case of `CC(C)C(=O)Nc1cccc(-c2cn3ccsc3n2)c1` [CBK096253], the viability – broadly, a read-out of living cells in per cent, often relative to untreated cells – at 28.5 h, 10 µM was determined as 67%.
The value for `COc1cccc(C(=O)Nc2nc(-c3ccc(S(=O)(=O)N4CCCC4)cc3)cs2)c1` [CBK096257] was 89%.
As for `N#Cc1ccc(-c2nc3cc(Cl)c(F)cc3[nH]2)cc1` [CBK096290], the viability at 28.5 h, 10 µM is 90.6%.
On to `O=C(Nc1nc(-c2ccc(S(=O)(=O)N3CCCC3)cc2)cs1)C1COc2ccccc2O1` (centres unmarked) [CBK096353], for which the viability at 28.5 h, 10 µM was 101%.
The value for `O=S(=O)(Nc1nc2c(s1)CCCC2)c1cc(Cl)ccc1Cl` [CBK096578] was 98.7%; that for `CN(C)c1ccc(/C=C2/C(=N)N3N=C(c4ccccc4Cl)SC3=NC2=O)cc1` [CBK097554] was 94.6%.
The value for `COc1cc(OC)cc(C(=O)Nc2cccc(-c3nc4ccccc4o3)c2)c1` [CBK097706] was 95.5%; that for `O=S(=O)(Nc1nc2c(s1)CCCC2)c1ccc(Br)cc1` [CBK097787] was 89.7%.
The value for `CCN(CC)c1ccc(NC(=O)c2cccc(OC)c2OC)c(C)c1` [CBK097801] was 92.2%; that for `CCCCOc1ccc2c(C(F)(F)F)cc(=O)oc2c1` [CBK097821] was 104%.
In the case of `Cc1cccc(S(=O)(=O)N2CCN(C)CC2)c1` [CBK097893], the viability at 28.5 h, 10 µM came to 93.6%.
For the molecule `O=S(=O)(c1cc(Cl)ccc1Cl)N1CCSC1` [CBK097980], the viability at 28.5 h, 10 µM worked out at 99.4%.
Regarding `Cc1csc2nc(-c3ccccc3)cn12` [CBK098072], the viability at 28.5 h, 10 µM was 108%.
Consider `CCOC(=O)c1cnn(-c2cc(Oc3ccccc3)ncn2)c1N` [CBK098284], for which the viability at 28.5 h, 10 µM worked out at 105%.
The same measure for `N#CC1CCCc2c1[nH]c1ccccc21` (centres unmarked) [CBK098397]: 74.9%; for `CCOC(=O)c1cnc(SCc2nc(N)nc(Nc3ccc(F)cc3)n2)nc1N` [CBK098477]: 82.3%.
The value for `COC(=O)c1cnn(-c2cc(Oc3ccccc3C)ncn2)c1N` [CBK098668] was 102%; that for `COc1cc(OC)cc(C(=O)Nc2ccc(C(=O)c3ccccc3)cc2)c1` [CBK098732] was 106%; that for `CCc1ccc(C2CC(=O)c3c(ccc4ccccc34)N2)cc1` (centres unmarked) [CBK098787] was 93.8%.
The same measure for `CCCOc1c(Cl)cc(/C=C2\N=C(c3ccc(OC)cc3)OC2=O)cc1OCC` [CBK098846]: 93.3%; for `CCN1C(=O)C(F)(CC)C(=O)c2ccccc21` (centres unmarked) [CBK098854]: 107%; for `O=c1[nH]c2ccccc2n1C1CCN(CCOC(c2ccc(F)cc2)c2ccc(F)cc2)CC1` [CBK099807G]: 101%.
With `COc1cc(OC)cc(C(=O)Nc2nnc(C(F)(F)F)s2)c1` [CBK099828], the viability at 28.5 h, 10 µM worked out at 88.7%.
The same measure for `Cc1ccc(-c2csc3ncn(Cc4ccccc4C)c(=O)c23)cc1C` [CBK099921]: 104%; for `O=C(Nc1ccc(-c2ccccc2C(F)(F)F)s1)C(F)(F)F` [CBK099942]: 96.3%.
The value for `OCCn1c(S)nnc1-c1ccccc1` [CBK100025] was 85.4%; that for `CCN1CCN(S(=O)(=O)c2ccc(Br)cc2)CC1` [CBK100197] was 99.7%.
The same measure for `CCN1CCN(S(=O)(=O)c2ccccc2F)CC1` [CBK100558]: 104%; for `Nc1ncc2cc(C(F)(F)F)ccc2n1` [CBK100705]: 107%; for `CC(=O)c1cc2c(N)c(C(N)=O)sc2nc1C` [CBK100769]: 102%.
On to `CCOC(=O)c1cc2c3ccccc3n(CC)c2nc1N` [CBK100822], for which the viability at 28.5 h, 10 µM came to 94%.
The value for `CC(=O)NCC(=O)N(c1ccccc1)C1(C(=O)NC(c2ccccc2)c2ccccc2)CCCC1` [CBK100884] was 102%; that for `O=C(O)c1cc(Br)cc2c3c([nH]c12)CCCC3` [CBK100973] was 99.7%.
The same measure for `N=C1NC(=O)/C(=C/c2ccc(O)c(Cl)c2)S1` [CBK100992]: 109%; for `O=C(O)c1cccc2c1C(=O)N(c1ccccc1)C2` [CBK101054]: 91.4%; for `COc1ccc(-n2nnnc2SCc2ccc(Cl)cc2)cc1` [CBK101068]: 60.7%.
The same measure for `CCN(CC)CCNC(=O)C1CCCCN1S(=O)(=O)c1ccc(C)cc1` (centres unmarked) [CBK101088]: 89.9%.
`COc1cc(C(=O)Nc2cc(-c3nc4ncccc4o3)ccc2C)cc(OC)c1OC` [CBK101133]: the viability at 28.5 h, 10 µM is 97%.
The same measure for `CCn1c2ccccc2c2cc(/C=N/N3CCN(c4ccccc4OC)CC3)ccc21` [CBK101168]: 92.6%; for `COc1ccccc1N(CC(=O)NC(C(C)C)C(C)C)S(=O)(=O)c1ccccc1` [CBK101384]: 91.4%; for `O=C1NCCc2c1[nH]c1ccccc21` [CBK101624]: 65.5%.
In the case of `C=CCn1c(SCC(=O)Nc2ccc(C(=O)OC)cc2)nnc1-c1ccc(Br)cc1` [CBK101797], the viability at 28.5 h, 10 µM came to 92.8%.
The same measure for `CCC1=NN2C(=N)/C(=C/c3ccc(OC)cc3)C(=O)N=C2S1` [CBK101905]: 95.6%; for `COc1cc(/C=C2\NC(=S)NC2=O)c(Cl)cc1O` [CBK102003]: 65.5%.
The value for `CC1CCN(S(=O)(=O)c2cccs2)CC1` [CBK102093] was 118%; that for `CCOc1cc(/C=C2\N=C(c3ccc(OC)cc3)OC2=O)cc(Br)c1OCC(=O)OC` [CBK102552] was 96.3%; that for `O=C(Nc1nc(-c2cccc([N+](=O)[O-])c2)cs1)c1ccc(S(=O)(=O)N2CCCC2)cc1` [CBK102813] was 86.5%.
The same measure for `O=C1S/C(=C\c2ccc(O)c([N+](=O)[O-])c2)C(=O)N1Cc1ccc(F)cc1` [CBK102928]: 94.9%.
Regarding `O=C1S/C(=C\c2ccc(O)c([N+](=O)[O-])c2)C(=O)N1Cc1ccc(Cl)cc1` [CBK102929], the viability at 28.5 h, 10 µM amounted to 87.2%.
The same measure for `COc1ccc([N+](=O)[O-])cc1NC(=O)c1nc(C)c(C)nc1C(=O)O` [CBK103387]: 82.6%; for `c1cc(-c2ccc(OC3CCNCC3)cc2)c2cccnc2c1` [CBK103528T]: 92.7%; for `CCOC(=O)Cn1[nH]c(COC(C)(C)C)c(Cc2c(Cl)cccc2Cl)c1=O` [CBK103551]: 114%.
In the case of `Cc1ccccc1NS(=O)(=O)c1cc(CN2C[C@@H](C)NC[C@@H]2C)c2occc2c1` [CBK103579T], the viability at 28.5 h, 10 µM was found to be 102%.
The value for `CCOC(=O)Cn1[nH]c(CO)c(Cc2c(Cl)cccc2Cl)c1=O` [CBK103580] was 92.2%.
The value for `CC(C)Nc1nccnc1SCc1ccc(Cl)c(Cl)c1` [CBK103657] was 89.8%; that for `CC(C)Nc1cc(SCc2ccc(Cl)c(Cl)c2)ncn1` [CBK103665] was 85.1%; that for `CC(C)Nc1nc2ccccc2nc1SCCc1ccncc1` [CBK103670] was 87.8%.
The same measure for `CC(C)CSc1nccnc1N1CCCC1` [CBK103683]: 97.7%; for `c1ccc(OCCSc2nc3ccccc3nc2N2CCCC2)cc1` [CBK103694]: 102%.

Source of the values: paper PMC12040169 (PLOS Biology, 2025).
